In patent US20190209585A1, “COMBINATION THERAPY COMPRISING A POLYUNSATURATED KETONE AND A SECOSTEROID” (Avexxin AS, priority 2016, published 2019):
Entries after “also recorded” stand apart in the source; their conditions may differ.

Tests used:
[1] = tested on: HaCaT cells; experiment: Resazurin assay of HaCaT keratinocyte cell proliferation and viability
Protocol: (§1) The spontaneously immortalized, nontumorigenic skin keratinocyte cell line HaCaT was maintained in DMEM supplemented with 5% (v/v) FBS, 0.3 mg/ml glutamine and 0.1 mg/ml gentamicin at 37° C. with 5% CO2 in a humidified atmosphere. Subculture using trypsin-EDTA was performed every 3-4 days with split ratio of 1:3-1:4 to ensure actively proliferating cells.
(§2) Cells were seeded in 96 well plates in fully supplemented medium at a density of 2500 cells per well. Following 72 hours of cultivation, the cells were starved of serum in 0.25% FBS/DMEM overnight to halt proliferation, synchronize and to increase cell sensitivity to treatment. On day 4, the cells were treated with cPLA2α inhibitor Compound A and vitamin D analogue Calcipotriol hydrate (Sigma Aldrich #C4369) and left to incubate for […] in incubator at 37° C. with 5% CO2 in a humidified atmosphere before fluorescence was read at 544 nm excitation and 590 nm emission wavelength. The cells were observed under the microscope to evaluate possible morphology changes and signs of stress before addition of resazurin. The experiments were performed in series of 8 wells per treatment and repeated 2-3 times.
as §2, with “hour” for “hours”, “synchronize the cells” for “synchronize”, “corticosteroid Betamethasone 17, 21-dipropionate (Sigma Aldrich #B1152)” for “cPLA2α inhibitor Compound A”, “#C4369) for 24 hours. On day 5, resazurin was added according to the manufacturer's instruction (RnD Systems, UK)” for “#C4369)”
as §2, with “3000” for “2500”, “48-72 hour” for “72 hours”, “synchronize the cells” for “synchronize”, “Next day,” for “On day 4,”, “compound” for “cPLA2α inhibitor Compound”, “or calcipotriol for 24 hours. Resazurin was added next day according to the manufacturer's instruction (RnD Systems, UK)” for “and vitamin D analogue Calcipotriol hydrate (Sigma Aldrich #C4369)”
as §1, with “1:4” for “1:3-1:4”
Cells were seeded in 96 well plates in fully supplemented medium at a density of 3000 cells per well. Following 72 hour of cultivation, the cells were starved of serum in 0.25% FBS/DMEM overnight to halt proliferation, synchronize the cells and to increase cell sensitivity to treatment. Next day, the cells were treated with Compound A, vitamin D analogue Calcipotriol and corticosteroid hormone receptor agonist Betamethasone dipropionate for 24 hours.

[2] = tested on: PGE2 production in PBMC challenged with LPS; experiment: PGE2 enzyme immunoassay of supernatants of PBMC challenged with LPS; format: cell-based, human
Protocol: Blood from healthy, consenting blood donors was collected at St. Olays Hospital HF, Trondheim, Norway.
From each donor, 2×6 ml heparin tubes with blood were used. Peripheral blood mononuclear cells (PBMC) were isolated using 50 mL SepMate™ tubes ([…]™ Technology, UK) and Lymphoprep™ (Fresenius Kabi, N) density gradient according to the manufacturers instructions.
PBMC were resuspended in RPMI-1640 cell culture medium complemented with 5% heat-inactivated fetal bovine serum (FBS), 0.03% glutamine, 0.01 mg/mL gentamicin and 3.4 ppm β-mercaptoethanol (all reagents from Sigma-Aldrich). […]
PGE2 enzyme immunoassay analysis of PBMC supernatants was performed according to the kit protocol (Cayman Chemicals, #514010, USA). […] The plate was read at OD 420 nm using a Cytation 5 imaging reader from BioTek and data acquired with the corresponding software Gen5 2.09. A four-parameter logistic model was fit to the absorbance data to determine PGE2 levels using the Cayman PGE2 protocol. […]
Accordingly, we isolated peripheral blood mononuclear cells, treated them with various doses and combinations of Compound A and calcipotriol and finally added LPS as a trigger to mount a broad inflammatory response. The cell supernatants collected following 72 hrs of LPS stimulation were next analyzed with respect to levels of PGE2, a key proinflammatory mediator close to the cPLA2α target.

SMILES | reduction of cell proliferation and viability ([1]; Example 2, 24 hours, 50 μM Betamethasone alone) | effect on proliferation and viability of HaCaT cells ([1]; Example 1, 10 μM, alone) | effect on HaCaT cell viability ([1]; Example 3/4, 24 hours, 15 μM, alone) | effect on HaCaT cell viability ([1]; Example 3, 24 hours, doses 1-10 μM, alone) | effect on HaCaT cell viability ([1]; Example 4, 10 μM, alone) | cytotoxicity at 10 µM ([1]; Homo sapiens, HaCaT, 24 h, read-out: reduction of cell proliferation and viability) | increase of PGE2 ([2]; calcipotriol 0.5 μM alone) | effect on PGE2 levels ([2]; high doses of calcipotriol alone (<0.5 μM))
CCC(=O)OCC(=O)[C@@]1(OC(=O)CC)[C@@H](C)C[C@H]2[C@@H]3CCC4=CC(=O)C=C[C@]4(C)[C@@]3(F)[C@@H](O)C[C@@]21C [Betamethasone, Betamethasone 17, 21-dipropionate] | 10% | – | – | – | – | – | – | –
C=C1/C(=C\C=C2/CCC[C@]3(C)[C@@H]([C@H](C)/C=C/[C@@H](O)C4CC4)CC[C@@H]23)C[C@@H](O)C[C@@H]1O [Calcipotriol] | – | little or no effect | affect cell viability; also recorded: reduced cell viability | no signs of impairment in cell viability | no signs of impairment in cell viability | 20% | 18% | PGE2 levels increased
